This note sets out measurements from ChEMBL document CHEMBL1201862, “PubChem BioAssay data set” (2004).

Test systems include LOX IMVI; DU-145; M14; A549; SK-MEL-2; NCI-H23; SK-MEL-5; HT-29; OVCAR-8; OVCAR-5; NCI-H460; SW-620; UACC-62; SK-MEL-28; SF-295; SF-539; Hs-578T; A498; RPMI-8226.
Test in all cases: inhibition of tumour cell growth, NCI panel, 48 h

The structures appear in SMILES notation.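 Protocol summary: plate cells (96-well), add compound at 5 concentrations, incubate 48 h, interpolate endpoints linearly. GI50 marks 50% less growth.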 Active and inactive are the calls of the source. Rule as the data show it: active = GI50 up to about 1.1 µM and inactive = higher. Peptide text beside a SMILES is read from it. * marks the point of attachment. Boc = CC(C)(C)OC(=O)*; OBn = c1ccc(CO*)cc1; Bn = c1ccc(C*)cc1 Some results are limits rather than exact numbers.

Take `O=P1(C(O)c2ccccc2)N(Cc2ccccc2)[C@@H]2CCCC[C@H]2N1Cc1ccccc1` (some centres not stated): the GI50 was 17.5 µM (inactive) with LOX IMVI; 35 µM (inactive) in the assay with DU-145; 24.8 µM (inactive) in the assay on M14; 28.8 µM (inactive) in the assay on A549; 27 µM (inactive) with SK-MEL-2; 47.9 µM (inactive) with NCI-H23. Moreover, the GI50 in the assay on SK-MEL-5 is 30.3 µM (inactive); in the assay with HT-29, 15 µM (inactive); in the assay with OVCAR-8, 31 µM (inactive); with OVCAR-5, 24.8 µM (inactive); in the assay on NCI-H460, 30.2 µM (inactive); in the assay with SW-620 it was 33.9 µM (inactive). The GI50 with UACC-62 was 30.7 µM (inactive); in the assay on SK-MEL-28, > 100 µM (inactive); in the assay on SF-295 it was 23.6 µM (inactive); in the assay on SF-539, 21.5 µM (inactive); in the assay on Hs-578T, 20 µM (inactive).

For the compound `CCOc1ccc2nc3nc(O)nc(C)c3c(NC(C)(CO)CO)c2c1`, the GI50 with LOX IMVI, in the assay on DU-145, in the assay with M14, in the assay on A549, with SK-MEL-2 and in the assay with NCI-H23 was > 100 µM (inactive) in each case. In addition, the GI50 in the assay on SK-MEL-5, in the assay with HT-29, in the assay with OVCAR-8, in the assay with A498, in the assay with OVCAR-5 and with NCI-H460 was > 100 µM (inactive) in each case. Also, the GI50 with SW-620, with UACC-62, with SK-MEL-28, with SF-295, with SF-539 and with Hs-578T was > 100 µM (inactive) throughout.

`CC(C)CC(NC(=O)C(CCC(=O)OCc1ccccc1)NC(=O)OC(C)(C)C)C(=O)NC(COCc1ccccc1)C(=O)NC(Cc1ccccc1)C(=O)O` (configuration not stated) (Boc-E(OBn)LS(Bn)F-OH; configuration not given here): the GI50 in the assay with M14, in the assay with A549, in the assay with SK-MEL-2, with NCI-H23, in the assay with SK-MEL-5 and in the assay with HT-29 was > 100 µM (inactive) in each case. Also, the GI50 with OVCAR-8, in the assay on A498, with OVCAR-5, in the assay on NCI-H460, in the assay on SW-620 and with UACC-62 was > 100 µM (inactive) throughout. Also, the GI50 with SK-MEL-28, in the assay on RPMI-8226 and in the assay on Hs-578T was > 100 µM (inactive) in each case.

Consider `C[C@]12CC[C@H]3[C@@H](CCC4=C[C@@H](N5CCCC5)CC[C@@]43C)[C@@H]1C/C(=C\c1ccncc1)[C@@H]2O`, for which the GI50 was 8.57 µM (inactive) in the assay on LOX IMVI; 15.9 µM (inactive) in the assay on DU-145; 2.39 µM (inactive) in the assay on M14; 12.3 µM (inactive) in the assay with A549; 16.4 µM (inactive) with SK-MEL-2; 15.5 µM (inactive) in the assay with NCI-H23. Besides, the GI50 in the assay on SK-MEL-5 is 12 µM (inactive); in the assay with HT-29, 0.631 µM (active); with OVCAR-8, 24.9 µM (inactive); in the assay with OVCAR-5 it was 18 µM (inactive); with NCI-H460 it was 11.6 µM (inactive); in the assay with SW-620, 13.4 µM (inactive). The GI50 in the assay on UACC-62 is 15.8 µM (inactive); in the assay with SK-MEL-28 it was 7.31 µM (inactive); in the assay with RPMI-8226, 4.79 µM (inactive); with SF-295, 4.91 µM (inactive); in the assay on SF-539 it was 9.35 µM (inactive); with Hs-578T, 13.8 µM (inactive).

In the case of `Cc1ccc(S(=O)(=O)NC(=O)Nc2cc(Cl)c(S(N)(=O)=O)cc2S(N)(=O)=O)cc1`, the GI50 in the assay with LOX IMVI, in the assay with DU-145, with M14, in the assay on A549, with SK-MEL-2 and in the assay on NCI-H23 was > 100 µM (inactive) throughout. In addition, the GI50 in the assay on SK-MEL-5, in the assay on HT-29, with OVCAR-8, with OVCAR-5, in the assay with SW-620 and with UACC-62 was > 100 µM (inactive) throughout. The GI50 with SK-MEL-28 is > 100 µM (inactive); in the assay on RPMI-8226, > 100 µM (inactive); with SF-295, > 100 µM (inactive); in the assay on SF-539, 58.3 µM (inactive); in the assay with Hs-578T, > 100 µM (inactive).

As for `CCCC(=O)NC(NC1CCCCC1)(C(=O)OCC)C(F)(F)F` (configuration not stated), the GI50 in the assay with LOX IMVI, with DU-145, in the assay on M14, with A549, with SK-MEL-2 and with NCI-H23 was > 100 µM (inactive) in each case. Also, the GI50 with SK-MEL-5, with HT-29, in the assay on OVCAR-8, in the assay on OVCAR-5, with NCI-H460 and with SW-620 was > 100 µM (inactive) throughout. Further, the GI50 in the assay with SK-MEL-28, in the assay with RPMI-8226, in the assay on SF-295, in the assay on SF-539 and in the assay on Hs-578T was > 100 µM (inactive) in each case.

`CC(=O)OCC(OC(C)=O)C(OC(C)=O)C(/C=N\Nc1nc2ccccc2c(=O)[nH]1)=N\Nc1nc2ccccc2c(=O)[nH]1` (configuration not stated): the GI50 in the assay with LOX IMVI, in the assay with DU-145, in the assay on M14, with A549, in the assay on SK-MEL-2 and in the assay on NCI-H23 was > 100 µM (inactive) throughout. Further, the GI50 in the assay with SK-MEL-5 is > 100 µM (inactive); in the assay with HT-29, > 100 µM (inactive); in the assay on OVCAR-8 it was > 100 µM (inactive); in the assay on OVCAR-5, > 100 µM (inactive); in the assay with NCI-H460, 22.3 µM (inactive); with SW-620, > 100 µM (inactive). Further, the GI50 with UACC-62, in the assay on SK-MEL-28, with RPMI-8226, in the assay with SF-295, in the assay with SF-539 and in the assay with Hs-578T was > 100 µM (inactive) throughout.

`[O-][S+](Nc1ccccc1)c1ccc(N2CCOCC2)cc1` (configuration not stated): the GI50 in the assay with LOX IMVI is 71 µM (inactive); in the assay with DU-145, 51.4 µM (inactive); with M14, > 100 µM (inactive); with A549 it was 43.9 µM (inactive); in the assay on SK-MEL-2, > 100 µM (inactive); in the assay with NCI-H23, > 100 µM (inactive). Further, the GI50 in the assay on SK-MEL-5 is 39.8 µM (inactive); in the assay with HT-29, 36.3 µM (inactive); in the assay with OVCAR-8, > 100 µM (inactive); in the assay with OVCAR-5 it was > 10 µM (inactive); with NCI-H460, 42.6 µM (inactive); in the assay with SW-620 it was 30.1 µM (inactive). Also, the GI50 in the assay with UACC-62 is 9.12 µM (inactive); in the assay on SK-MEL-28, > 100 µM (inactive); with RPMI-8226, 58.7 µM (inactive); in the assay with SF-295 it was > 100 µM (inactive); with SF-539, 35.8 µM (inactive); in the assay with Hs-578T, > 100 µM (inactive).

In the case of `Cc1cc(Cl)nc2nc(Cl)c(N)cc12`, the GI50 is 1.91 µM (inactive) with LOX IMVI; 7.03 µM (inactive) in the assay with DU-145; 8.67 µM (inactive) with M14; 13.5 µM (inactive) in the assay on A549; 14.9 µM (inactive) with SK-MEL-2; 7.24 µM (inactive) with NCI-H23. The GI50 with SK-MEL-5 is 10.9 µM (inactive); in the assay on HT-29 it was 2.15 µM (inactive); in the assay on OVCAR-8, 2.67 µM (inactive); in the assay on OVCAR-5 it was 17 µM (inactive); in the assay on NCI-H460, 2.38 µM (inactive); in the assay with SW-620, 2.04 µM (inactive). In addition, the GI50 is 2.37 µM (inactive) with UACC-62; 2.56 µM (inactive) with SK-MEL-28; 2.26 µM (inactive) in the assay with RPMI-8226; 12.3 µM (inactive) in the assay with SF-295; 4.71 µM (inactive) with SF-539; 10.4 µM (inactive) in the assay on Hs-578T.

In the case of `COc1ccc2c(c1)CC1C3(CCCCC23)CC[N+]1(C)C` (configuration not stated), the GI50 in the assay on LOX IMVI, in the assay with DU-145, in the assay with M14, in the assay with A549, with SK-MEL-2 and in the assay on NCI-H23 was > 100 µM (inactive) in each case. In addition, the GI50 with SK-MEL-5, in the assay on HT-29, in the assay on OVCAR-8, in the assay on OVCAR-5, with NCI-H460 and in the assay with UACC-62 was > 100 µM (inactive) throughout. Moreover, the GI50 in the assay with SK-MEL-28, with RPMI-8226, in the assay with SF-295 and with Hs-578T was > 100 µM (inactive) each time.

In the case of `O=C1OCC(O)=C1C(c1ccc(Cl)cc1)c1cc2c(cc1O)OCO2` (configuration not stated), the GI50 in the assay with LOX IMVI, with DU-145, in the assay on M14, with A549, with SK-MEL-2 and in the assay on SK-MEL-5 was > 100 µM (inactive) throughout. For the same compound, the GI50 with HT-29, with A498, in the assay with OVCAR-5, in the assay with NCI-H460, with SW-620 and in the assay on UACC-62 was > 100 µM (inactive) each time. For the same compound, the GI50 with SK-MEL-28, in the assay on SF-539 and in the assay on Hs-578T was > 100 µM (inactive) throughout.
